Measurements as given in PubChem BioAssay (NCI).
“And” between values parts separate entries of the source, which are not always exact repeats. Equal entries are not always repeated.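 Interpolation was linear, between the two tested concentrations surrounding the appropriate level; five concentrations were tested over 48 hours in 96-well plates. GI50 marks 50% less growth. At the TGI there is no net growth.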

Columns and labels:
Assay in all cases: NCI tumour cell line growth inhibition, 48 h
HCT-116 colon = tested on: HCT-116 colon
HOP-62 NSCLC = tested on: HOP-62 NSCLC
KM12 colon = tested on: KM12 colon
MCF7 breast = tested on: MCF7 breast
PC-3 prostate = tested on: PC-3 prostate
SK-MEL-2 melanoma = tested on: SK-MEL-2 melanoma
SNB-75 CNS = tested on: SNB-75 CNS
TK-10 renal = tested on: TK-10 renal
U251 CNS = tested on: U251 CNS
UACC-62 melanoma = tested on: UACC-62 melanoma

Compound | GI50 (HCT-116 colon) | TGI (HCT-116 colon) | GI50 (HOP-62 NSCLC) | TGI (HOP-62 NSCLC) | GI50 (KM12 colon) | TGI (KM12 colon) | GI50 (MCF7 breast) | TGI (MCF7 breast) | GI50 (PC-3 prostate) | TGI (PC-3 prostate) | GI50 (SK-MEL-2 melanoma) | TGI (SK-MEL-2 melanoma) | GI50 (SNB-75 CNS) | TGI (SNB-75 CNS) | GI50 (TK-10 renal) | TGI (TK-10 renal) | GI50 (U251 CNS) | TGI (U251 CNS) | GI50 (UACC-62 melanoma) | TGI (UACC-62 melanoma)
O=C1CC[C@H](N2Cc3c(OCc4ccc(CN5CCOCC5)cc4)cccc3C2=O)C(=O)N1 | > 100 µM | > 100 µM | > 100 µM | > 100 µM | > 100 µM | > 100 µM | > 100 µM | > 100 µM | > 100 µM | > 100 µM | > 100 µM | > 100 µM | > 100 µM | > 100 µM | > 100 µM | > 100 µM | > 100 µM | > 100 µM | > 100 µM | > 100 µM
N#Cc1ccc(-c2c(-c3ncn[nH]3)sc(N3CCOCC3)c2C#N)c(F)c1 | 0.553 µM | 37.6 µM | 1.05 µM | 21.9 µM | 2.25 µM | 15.6 µM | 0.135 µM | 17.7 µM | 0.345 µM | 20.3 µM | 1.92 µM | 10.7 µM | 0.0736 µM | 0.771 µM | 0.316 µM | 7.11 µM | 1.03 µM | 21.7 µM | 0.384 µM | 2.64 µM
CC1=C(/C=C/C(=O)CC(=O)/C=C/C2=C(C)CCCC2(C)C)C(C)(C)CCC1 | 27.7 µM | > 100 µM | 32.3 µM | > 100 µM | 32.9 µM | > 100 µM | 22.7 µM | 72.9 µM | 17.6 µM | 75.2 µM | 20.3 µM | 77.8 µM | 49.6 µM | > 100 µM | 28.1 µM | > 100 µM | 29.2 µM | > 100 µM | 19.1 µM | 44.7 µM
CCOC(=O)Nc1nc2ccccc2[nH]1 | 5.34 µM and 4.52 µM | > 100 µM | 6.08 µM and > 22.9 µM | > 100 µM | 5.16 µM and 2.96 µM | > 100 µM | 3.63 µM and 3.15 µM | > 100 µM | 6.6 µM and 4.07 µM | > 100 µM | 3.44 µM and 4.49 µM | > 100 µM | 3.01 µM and 2.61 µM | > 100 µM | 11.3 µM and > 27 µM | > 100 µM | 5.2 µM and 4.48 µM | > 100 µM | 5.38 µM and 4.46 µM | > 100 µM
Cc1ccc(C(=O)NCCCOc2ccc(N3C(N)=NC(N)=NC3(C)C)cc2Cl)cc1S(=O)(=O)F | 15 µM | > 100 µM | > 100 µM | > 100 µM | 39 µM | > 100 µM | 22.4 µM | > 100 µM | 5.9 µM | > 100 µM | > 100 µM | > 100 µM | 13.4 µM | > 100 µM | > 100 µM | > 100 µM | 7.72 µM | > 100 µM | 9.39 µM | > 100 µM
CCCCCCCCCCCCCCCCCCNCc1ccc(Cl)cc1 | 3.03 µM | 11.7 µM | 3.17 µM | 12.8 µM | 2.5 µM | 6.54 µM | 2.93 µM | 11.5 µM | 1.94 µM | 3.96 µM | 8.65 µM | 25.9 µM | 9.15 µM | 27.3 µM | 2.3 µM | 9.03 µM | 1.96 µM | 3.85 µM | 4.02 µM | 15.5 µM
NC(=S)N=Nc1c(O)[nH]c2c(Cl)cc(Cl)cc12 | – | 40.5 µM | – | 49.4 µM | – | 42.2 µM | – | > 100 µM | – | 81.1 µM | – | 34.8 µM | – | 42.4 µM | – | > 100 µM | – | 40.9 µM | – | 34.1 µM
O=C(O)C1CC=CCC1C(=O)Nc1cccc(O)c1 (stereo not given) | – | > 100 µM | – | > 100 µM | – | > 100 µM | – | > 100 µM | – | > 100 µM | – | > 100 µM | – | > 100 µM | – | > 100 µM | – | > 100 µM | – | > 100 µM
Nc1ccccc1C#C/C=C\C#CC#C/C=C\C#Cc1ccccc1N | 3.84 µM | 15.9 µM | 10.5 µM | 28.1 µM | 3.64 µM | > 100 µM | 4.6 µM | > 100 µM | 2.59 µM | 16.5 µM | 14.2 µM | 65.3 µM | 3.27 µM | 22 µM | 15.3 µM | > 100 µM | 5.61 µM | 22.2 µM | 2.18 µM | 13.1 µM
O=[N+]([O-])c1cccc(-c2nc(-c3ccc(Cl)cc3Cl)cn2-c2ccccc2)c1 | 0.855 µM | 2.02 µM | 1.39 µM | 7.56 µM | 0.573 µM | 1.22 µM | 0.909 µM | 4.02 µM | 0.391 µM | 10.8 µM | 1.9 µM | > 11.8 µM | 0.509 µM | 1.34 µM | 0.612 µM | 1.13 µM | 0.614 µM | 1.26 µM | 6.73 µM | > 33.3 µM
COCCOCCOCc1n(Cc2ccc3ccccc3c2)c2ccccc2[n+]1Cc1ccc2ccccc2c1 | 0.385 µM | 1.65 µM | 1.17 µM | 2.59 µM | 0.352 µM | 1.29 µM | 0.325 µM | 1.45 µM | 0.344 µM | 1.59 µM | 0.313 µM | 0.941 µM | 0.236 µM | 1.31 µM | 0.772 µM | 2.15 µM | 0.352 µM | 1.48 µM | 0.329 µM | 1.45 µM
CS(=O)(=O)Nc1cc(-c2ccc3ncnc(Nc4ccc(F)c(Cl)c4)c3c2)cnc1Cl | 0.783 µM and 0.946 µM | 3.22 µM and 5.22 µM | 0.295 µM and 1.12 µM | 9.01 µM and 27.1 µM | 1.24 µM and 1.71 µM | 3.39 µM and 8.13 µM | 0.216 µM and 0.227 µM | 11.4 µM and 11.8 µM | 0.594 µM and 0.562 µM | 5.2 µM and 7.02 µM | 0.289 µM and 0.441 µM | 1.53 µM and 2.32 µM | 0.132 µM and 0.0697 µM | 1.28 µM and 0.812 µM | 0.261 µM | 2.28 µM | 0.511 µM and 0.856 µM | 2.57 µM and 9.19 µM | 0.255 µM | 1.56 µM
CC(C)(C)OC(=O)NCCCCn1c2c(c3ccccc3c1=O)C(=O)c1ccccc1-2 | 5.21 µM | > 100 µM | 28.7 µM | > 100 µM | 28.9 µM | > 100 µM | 21.3 µM | > 100 µM | 8.71 µM | > 100 µM | 52.1 µM | > 100 µM | 35.4 µM | > 100 µM | 20.7 µM | 47.7 µM | 15.9 µM | 37.6 µM | 10.9 µM | 27.8 µM
